For one assay, the system named is cooling strength. To be noted: with respect to WS-3 = 10.0; cited from earlier work.
The test system of assay [1] is cooling profile of menthol. Nature of the assay: Example II: cooling profile versus 5 ppm menthol control, group of five trained panelists. It is filed as in vivo, human. To be noted: for Average Increase: versus 5 ppm menthol control. The method, then: Responsible actives were determined by comparing the cooling profile of menthol alone (the control) against the solutions with either menthol or cooling enhancing compositions or menthol with the active(s). The profile attributes consist of onset, location, intensity and duration of cooling. Control: 5mg menthol/1 Liter of water (=5 ppm) The use level of 5 ppm is a standard use level within our research facility when looking for cooling enhancement. The levels of the actives were determined after tasting them at varying concentrations within the range of 1 ppm to 200 ppm. The levels presented were deemed to be optimal by offering the greatest functionality. The cooling enhancing compositions listed below were dosed on top of the menthol control. The results below were obtained by a group of five trained panelists.)

A further assay has as its system cooling. Nature of the assay: Inherent cooling of materials tasted alone in water. It is filed as in vivo, human.
The mark [2] stands for this setting: 5 ppm Menthol + 50 ppm test substance in water.
The mark [3] stands for this setting: 5 ppm Menthol + 50 ppm test substance.

In the case of `CCNC(=O)C1CC(C)CCC1C(C)C` (stereo not drawn) [WS-3], in the assay on cooling strength, the relative cooling strength is 10.0. With `CC1CCC(C(C)C)C(OC(=O)C(C)O)C1` (stereo not drawn) [Menthyl Lactate], the relative cooling strength entry in the assay with cooling strength is given as “about 2.9”. Take `CCOC(=O)CNC(=O)[C@@H]1C[C@H](C)CC[C@H]1C(C)C` [WS-5]: in the assay with cooling strength, the relative cooling strength result was “about 16.7”. With `CNC(=O)C1C(C)CCCC1(C)C` (stereo not drawn) [N,2,2,6-Tetramethylcyclohexane-l-carboxamide], in the assay with cooling strength, the relative cooling strength entry is on record as “about 1.0”.

Regarding `O=C1C[C@@H](c2ccc(O)c(O)c2)Oc2cc(O)cc(O)c21` [Eriodictyol], in assay [1] (setting [2]), the “Taste Descriptors” value is “Cooling localized on middle of tongue stronger than control, more intense in back of throat on breath-in, does not trigger a faster onset, cooling builds more after expectorating and on breath-in, sharpened the intensity of cooling in the center and sides of tongue and roof of mouth”. Moreover, in assay [1] (setting [3]), the “Average Increase” value was determined as 56%. Besides, the “inherent cooling (taste observation)” value in the assay on cooling (35 ppm in water) is reported as “slight irritation (piperin-like burn) without cooling”.

In the case of `CC1CCC(C(C)C)C(O)C1` (stereo not drawn) [Menthol], the “Taste Descriptors” value in assay [1] (5 ppm Menthol alone in water (control)) is “thin and moderate cooling, slight burn, some bitterness, cooling on front, tip of tongue and gums, mild cooling on breath-in, slightly harsh and sharp”.

On to `COc1cc([C@@H]2CC(=O)c3c(O)cc(O)cc3O2)ccc1O` [Homoeriodictyol], for which the “Taste Descriptors” value in assay [1] (5 ppm Menthol + 5 ppm test substance in water) is “faster onset of cooling than menthol alone, cooling localized on front of tongue, cold as in temperature, slight teeth cooling, fully delocalized cooling after 10 seconds reaching back of throat and roof of mouth, mild cooling on breath-in, diminished menthol burn”. Moreover, the “Average Increase” value in assay [1] (5 ppm Menthol + 5 ppm test substance) is reported as 66%. For the same compound, the “inherent cooling (taste observation)” value with cooling (5 ppm in water) was “taste neutral, slightly drying, no cooling”; in the assay on cooling (25 ppm in water), “drying, not cooling”. In the case of `CC1CCC(C(C)C)C(C(=O)OCC(O)CO)C1` (stereo not drawn) [WS-30], the relative cooling strength entry with cooling strength is “about 1.5”.

As to `CC(C)[C@@H]1CC[C@@H](C)C[C@H]1OC(=O)CCCC(=O)O` [monomenthyl glutarate], the relative cooling strength result in the assay on cooling strength was “about 3.5”. Take `CNC(=O)C(C)(C(C)C)C(C)C` [WS-23]: the relative cooling strength entry in the assay with cooling strength is on record as “about 5.0”. Take `CC(C)[C@@H]1CC[C@@H](C)C[C@H]1C(=O)NC(C)(C)C` [WS-14]: the relative cooling strength result in the assay on cooling strength is recorded as “about 5.0”. `O=c1cc(-c2ccc(O)c(O)c2)oc2cc(O)cc(O)c12` [Luteolin]: in assay [1] (setting [2]), the “Taste Descriptors” value is “Equivalent cooling as compared to control, localized on front tip of tongue, gums and roof of mouth, did not expedite onset but smoothed upfront mouthfeel, slight irritation to tongue and back of mouth/ throat cavity”. Further, in assay [1] (setting [3]), the “Average Increase” value was 32%. Besides, the “inherent cooling (taste observation)” value in the assay on cooling (50 ppm in water) is given as “slightly stale flavor, no cooling”. Take `COc1ccc([C@@H]2CC(=O)c3c(O)cc(O)cc3O2)cc1O` [Hesperetin]: in assay [1] (setting [2]), the “Taste Descriptors” value was “Sweet, no impact on cooling, slightly bitter, drying, cooling is delocalized and about the same strength as control”. Also, the “Average Increase” value in assay [1] (setting [3]) was found to be 0%.

These data come from patent US9675699B2, “Cooling enhancing compositions” (International Flavors & Fragrances Inc., priority 2011, dated 2017).
